Reference: patent US12616713B2, “Methods for enhancing vascular density” (priority 2016, dated 2026)

Tests used:
Format in all cases: in vivo, mouse
SIRT1-iKO and WT mice = assay: Hindlimb ischemia model; details: 8-month old mice, femoral ligation, NMN 20 days; SIRT1-dependent
Experimental: The effect of NMN in ischemia-induced vessel formation was assessed in a murine model of hindlimb ischemia using SIRT1-iKO and WT mice according to the published protocol (Limbourg et al., 2009, Nat Protoc 4, 1737-1746). Treatment of animals with NMN (500 mg/kg/day) via drinking water started one week prior to femoral ligation and was continued until the end of the experiment. The blood flow in the ischemic limb was measured using contrast-enhanced ultrasound imaging, 20 days after the surgery.
Mice were anesthetized with isoflurane (1.5-2%, 500 ml 02/min), hindlimbs were shaved using depilatory cream and a 27-gauge catheter was placed into each mouse's tail and kept in place with surgical tape. […] A cine loop was recorded at a frame rate of 20 frames/s for a total of 1,000 frames. […] The difference in maximum and minimum video intensity was determined as the peak enhancement and was the variable used to determine muscle perfusion.
Freshly isolated whole quadriceps and gastrocnemius muscle samples were mounted in OCT compound (Tissue-Tek), placed in an isopentane bath and slowly cooled in liquid nitrogen. […] Images were acquired using a confocal fluorescence microscope (Nikon A1). Quantification of capillaries and capillary density were performed using ImageJ software. […]

C57BL/6J mice [1] = assay: Contrast-enhanced ultrasound of hindlimb muscle perfusion; details: 20-month old mice, NMN-treated versus vehicle
Experimental: Mice were anesthetized with isoflurane (1.5-2%, 500 ml 02/min), hindlimbs were shaved using depilatory cream and a 27-gauge catheter was placed into each mouse's tail and kept in place with surgical tape. Each mouse was placed in a supine position on a platform heated to 38° C. with each paw taped to a surface electrode to monitor ECG, heart rate, and respiratory rate. Contrast-enhanced ultrasound (CEU) (Vevo 2100, Visualsonics, Canada) was performed at an imaging frequency of 18 MHz. The probe was placed on the medial side of the leg to image the lower hindlimb in a sagittal plane. A bolus injection of microbubbles (Vevo MicroMarker, Canada) were injected through the tail vein catheter according to the manufacturer's instructions. A cine loop was recorded at a frame rate of 20 frames/s for a total of 1,000 frames. Curve fit analysis was used to measure echo power over time. The difference in maximum and minimum video intensity was determined as the peak enhancement and was the variable used to determine muscle perfusion.

C57BL/6J mice [2] = assay: Treadmill exercise training with or without NMN, muscle capillaries
Experimental: Mice were acclimatized to the treadmill system for 3 days prior to the start of exercise training by running at 10 m/min for 20 min. The animals that were successfully acclimatized were then subjected to running at 15-20 m/min at 5° inclination for 30 minutes once daily for one month. Freshly isolated whole quadriceps and gastrocnemius muscle samples were mounted in OCT compound (Tissue-Tek), placed in an isopentane bath and slowly cooled in liquid nitrogen. Transverse sections at 20 μm-thickness were sectioned on a cryostat (Leica). The sections were fixed in pre-cooled acetone (-20° C.) for 10 min and washed with PBS. […] Slides were washed with PBST and then incubated with anti-rat Alexa Fluor 488-conjugated (Life Technologies) and anti-rabbit Alexa Fluor 594-conjugated (Life Technologies) antibodies diluted to 1:500 in blocking buffer for 2 h at room temperature. Slides were washed again with PBST and mounted with Fluoroshield with DAPI mounting medium (Sigma). Images were acquired using a confocal fluorescence microscope (Nikon A1). Quantification of capillaries and capillary density were performed using ImageJ software. TUNEL staining was performed in muscle sections using in situ BrdU-Red DNA fragmentation (TUNEL) assay kit (Abcam) as per manufacturer's protocol.

[3] = Food and water intake, body weight and composition, motor and cardiac function of treated old mice; details: 18-month old mice, NMN 400 mg/kg/day in drinking water, two months
Description: SIRT1-iKO, SIRT1-Tg and SIRT1^STOP mice were described previously (Firestein et al., 2008, PLoS One 3, e2020; Price et al., 2012, Cell Metab 15, 675-690). Tie2Cre and Sirt1^flox/flox mice were purchased from Jackson Laboratory (Bar Harbor, ME). MCK-PGC-1α and MyogCre mice were gifts from Dr. Bruce Spiegelman (Dana Farber Cancer Center, MA) and Dr. Eric N. Olson (UT Southwestern, Dallas, TX), respectively. mT-STOP^flox/flox, Gfp mouse was generated in house by E.O.W., which consists of an allele driven by ubiquitous actin B promoter, which has loxP sites flanking membrane-targeted tandem dimer Tomato (mT) and transcriptional STOP cassette, followed by a GFP coding sequence. […] Mice were fasted for 6 h and blood glucose levels were measured by tail bleed (Accu Check Performa, Roche). Blood lactate was measured before and immediately after treadmill exercise training for 20 minutes at 15 meters/minute by tail bleed (Accutrend Plus, Roche). […] Urine was collected after a 2 h fast and analyzed for creatinine levels using a colorimetric assay kit (Cayman chemical, US) as per manufacturer's protocol. Motor coordination was assessed using the rotarod test as previously described ([…] et al., 2011, Plos One 6, e20336). […] On the 4th day, the animals were subjected to three trials on the accelerating roller (4-40 rpm in 4 min) and the time that the mice remained was recorded. […]

NC(=O)c1ccc[n+]([C@@H]2O[C@H](COP(=O)([O-])O)[C@@H](O)[C@H]2O)c1 [NMN, nicotinamide mononucleotide]
capillary density of ischemic gastrocnemius (SIRT1-iKO and WT mice): restored
relative blood volume (peak enhancement) of ischemic limb (SIRT1-iKO and WT mice): restored
resting muscle perfusion (peak enhancement) (C57BL/6J mice [1]): increased resting muscle perfusion
more capillaries in gastrocnemii than sedentary mice (C57BL/6J mice [2]; exercised and NMN-treated mice): 70%
increase in vascular density and exercise capacity in conjunction with exercise versus without exercise (C57BL/6J mice [2]; mice (summary statement)): greater
capillary density or exercise capacity (C57BL/6J mice [2]; young mice kept sedentary, NMN 400 mg/kg/day): did not increase
increase in capillary density (C57BL/6J mice [2]; young mice, one month endurance training plus NMN 400 mg/kg/day, versus sedentary): 3.2 fold
food intake, water consumption, body weights, body composition, motor learning skills and cardiac function [3]: had no effect
